Results on nine compounds are retold here after ChEMBL document CHEMBL5058564, “EUbOPEN Chemogenomics Library 2 (Incucyte)” (2022).

Common to all, as to format: toxicity, cell-based
One data set has as its system HEK-293T. Description: Incucyte cell viability with HEK293T. The conditions noted are these: human, 10 µM, compound concentration 10 uM.
For the next data set, the system named is Fibroblast. As to the kind of experiment: Incucyte cell viability with human fibroblast. The conditions noted are these: 10 µM, compound concentration 10 uM.
In the next data set the test system is U2OS. Description: Incucyte cell viability with U2OS. The conditions noted are these: human, 10 µM, compound concentration 10 uM.
Where [1] appears, read: 0 h, replicate number 1, timepoint 0 hours.
[2] abbreviates: 0 h, replicate number 2, timepoint 0 hours.
Where [3] appears, read: 18 h, replicate number 1, timepoint 18 hours.
The mark [4] stands for this setting: 6 h, replicate number 1, timepoint 6 hours.
Where [5] appears, read: 12 h, replicate number 1, timepoint 12 hours.
Setting [6] is: 12 h, replicate number 2, timepoint 12 hours.
[7] abbreviates: 24 h, replicate number 2, timepoint 24 hours.
[8] abbreviates: 6 h, replicate number 2, timepoint 6 hours.
The mark [9] stands for this setting: 18 h, replicate number 2, timepoint 18 hours.
Where [10] appears, read: 24 h, replicate number 1, timepoint 24 hours.
Note: unitless GR value; below 1 slowed growth and below 0 cell loss.

As for `C[S+](C)[O-]` [DIMETHYL SULFOXIDE], the “Growth Rate” value with HEK-293T (setting [1]) came to 0.62; with HEK-293T (setting [2]), 0.67; in the data set on HEK-293T (setting [3]), 0.93; in the data set with Fibroblast (setting [2]), 0.18; in the data set with Fibroblast (setting [4]), 0.29; in the data set on Fibroblast (setting [5]), 0.81. The “Growth Rate” value with Fibroblast (setting [6]) is recorded as 0.86; with Fibroblast (setting [7]) it was 0.93; with U2OS (setting [1]) it was 0.71; with U2OS (setting [2]) it was -0.56; in the data set with U2OS (setting [4]), 0.96; in the data set with U2OS (setting [8]), 0.93. Also, the “Growth Rate” value worked out at 0.94 with U2OS (setting [3]), 0.98 in the data set on U2OS (setting [9]) and 0.98 in the data set on U2OS (setting [10]).

Take `COc1ccc(S(=O)(=O)N2C(=O)[C@@](c3ccccc3OC)(N3C[C@H](O)C[C@H]3C(=O)N(C)C)c3cc(Cl)ccc32)c(OC)c1`: the “Growth Rate” value with HEK-293T (setting [8]) is 0.78; in the data set on Fibroblast (setting [4]), 0.08; in the data set on Fibroblast (setting [8]) it was -0.04; in the data set with Fibroblast (setting [5]), 0.09; with Fibroblast (setting [6]), 0.24; in the data set with Fibroblast (setting [3]), 0.36. The “Growth Rate” value with Fibroblast (setting [9]) is reported as 0.45; with Fibroblast (setting [10]), 0.43; in the data set on Fibroblast (setting [7]), 0.6; in the data set with U2OS (setting [1]), 0.6; with U2OS (setting [2]), -1; in the data set with U2OS (setting [4]), 0.33. Besides, the results for the “Growth Rate” value in the data set with U2OS (setting [3]), in the data set with U2OS (setting [9]) and in the data set with U2OS (setting [7]) were 0.82, 0.98 and 0.9, respectively.

For `CN(C)CCCOc1ccc(-c2cc(NCCCn3cccn3)nc(S(C)(=O)=O)n2)cc1`, the “Growth Rate” value was determined as 0.9 in the data set on HEK-293T (setting [4]); 0.97 in the data set on HEK-293T (setting [9]); 0.97 in the data set on HEK-293T (setting [7]); 0.56 in the data set on Fibroblast (setting [2]); 0.86 in the data set on Fibroblast (setting [4]); 0.96 in the data set with Fibroblast (setting [10]). The “Growth Rate” value came to 0.2 in the data set on U2OS (setting [1]); 0.22 in the data set with U2OS (setting [4]); 0.71 in the data set with U2OS (setting [3]); 0.82 in the data set with U2OS (setting [9]); 0.85 in the data set with U2OS (setting [10]).

Turning to `CC(C)(O)C(=O)N1CCN(c2ccc(C(F)(F)F)c(C3=C(c4c[nH]c5ccccc45)C(=O)NC3=O)c2)CC1`, the “Growth Rate” value in the data set with HEK-293T (setting [2]) stood at 0.33; in the data set on HEK-293T (setting [4]) it was 0.49; in the data set with HEK-293T (setting [8]), 0.88; in the data set with HEK-293T (setting [5]), 0.3; in the data set with HEK-293T (setting [6]), 0.37; with HEK-293T (setting [3]), 0.44. In addition, the “Growth Rate” value in the data set with HEK-293T (setting [9]) was 0.36; in the data set with HEK-293T (setting [10]), 0.33; with Fibroblast (setting [1]), -0.17; with Fibroblast (setting [2]) it was -0.42; in the data set on Fibroblast (setting [4]), -0.69; in the data set on Fibroblast (setting [8]) it was 0.17. Also, the “Growth Rate” value with Fibroblast (setting [5]) is -0.33; in the data set with Fibroblast (setting [6]), 0.04; with Fibroblast (setting [3]), -0.31; in the data set with Fibroblast (setting [9]), -0.06; with Fibroblast (setting [10]) it was -0.3; in the data set on Fibroblast (setting [7]), -0.09. Further, the “Growth Rate” value in the data set on U2OS (setting [1]) is on record as -0.52; in the data set with U2OS (setting [2]), 0.29; with U2OS (setting [4]), 0.8; with U2OS (setting [8]) it was 0.91; in the data set with U2OS (setting [5]), 0.92; with U2OS (setting [6]), 0.78. Further, the “Growth Rate” value with U2OS (setting [3]) was determined as 0.66; with U2OS (setting [9]), 0.68; in the data set with U2OS (setting [10]), 0.67; in the data set with U2OS (setting [7]), 0.58.

Take `CN(c1ncccc1CNc1ccnc(-c2nc3c(F)c(Cl)ccc3[nH]2)n1)S(C)(=O)=O`: the “Growth Rate” value was -0.02 in the data set on HEK-293T (setting [1]); 0.48 in the data set with HEK-293T (setting [2]); 0.84 in the data set with HEK-293T (setting [4]); 0.97 with HEK-293T (setting [5]); 0.72 in the data set on HEK-293T (setting [6]); 0.93 with HEK-293T (setting [3]). Besides, the “Growth Rate” value is listed as 0.99 in the data set on HEK-293T (setting [9]); 0.81 in the data set on HEK-293T (setting [7]); 0.75 in the data set on Fibroblast (setting [2]); -0.47 in the data set on Fibroblast (setting [4]); 0.38 in the data set on Fibroblast (setting [5]); 0.27 with Fibroblast (setting [3]). Also, the “Growth Rate” value is given as 0.36 in the data set with Fibroblast (setting [10]); 0.92 in the data set with Fibroblast (setting [7]); -0.62 in the data set on U2OS (setting [1]); -0.69 in the data set with U2OS (setting [2]); 0.1 in the data set on U2OS (setting [4]); 0.61 in the data set on U2OS (setting [8]). The “Growth Rate” value in the data set on U2OS (setting [5]) is 0.15; in the data set with U2OS (setting [6]), 0.66; in the data set with U2OS (setting [3]), 0.62; in the data set with U2OS (setting [9]) it was 0.87; in the data set with U2OS (setting [10]), 0.78; in the data set with U2OS (setting [7]), 0.72.

`O=c1ccn([C@@H]2O[C@H](COP(=O)([O-])OP(=O)([O-])OP(=O)([O-])OP(=O)([O-])OC[C@H]3O[C@@H](n4ccc(=O)[nH]c4=O)[C@H](O)[C@@H]3O)[C@@H](O)[C@H]2O)c(=O)[nH]1.[Na+].[Na+].[Na+].[Na+]` [DIQUAFOSOL TETRASODIUM]: the “Growth Rate” value in the data set with HEK-293T (setting [1]) came to 0.43; with HEK-293T (setting [2]), 0.4; in the data set with HEK-293T (setting [4]), 0.69; in the data set on HEK-293T (setting [8]) it was 0.63; with HEK-293T (setting [5]) it was 0.73; with HEK-293T (setting [3]), 0.72. Besides, the “Growth Rate” value was 0.85 in the data set on HEK-293T (setting [10]); 0.81 with HEK-293T (setting [7]); 0.39 in the data set with Fibroblast (setting [1]); 0.61 with Fibroblast (setting [8]); 0.89 with Fibroblast (setting [10]); -0.05 in the data set on U2OS (setting [1]). In addition, the “Growth Rate” value in the data set on U2OS (setting [4]) is recorded as 0.17; with U2OS (setting [5]), 0.47; in the data set on U2OS (setting [3]) it was 0.88; in the data set with U2OS (setting [9]), 0.92; in the data set with U2OS (setting [10]) it was 0.93.

Regarding `O=C(NCCN1CCC(n2c(=O)[nH]c3cc(Cl)ccc32)CC1)c1ccc(F)cc1` [HALOPEMIDE], the “Growth Rate” value in the data set with HEK-293T (setting [4]) is -0.01; in the data set on HEK-293T (setting [8]), 0.96; in the data set on HEK-293T (setting [5]), 0.56; in the data set on HEK-293T (setting [6]) it was 0.68; with HEK-293T (setting [3]), 0.67; with HEK-293T (setting [10]), 0.5. Moreover, the “Growth Rate” value in the data set on Fibroblast (setting [4]) is recorded as -0.01; with Fibroblast (setting [8]), 0.12; in the data set on Fibroblast (setting [5]) it was -0.23; with Fibroblast (setting [6]), 0.66; in the data set with Fibroblast (setting [3]), -0.17; in the data set with Fibroblast (setting [10]) it was -0.39. Besides, the “Growth Rate” value turned out to be 0.7 in the data set with U2OS (setting [1]), 0.14 with U2OS (setting [2]) and 1 in the data set with U2OS (setting [9]).

With `CC(C)Oc1ccc(F)c(-c2cnc(N)c(C(=O)Nc3cnccc3N3CCC[C@@H](C(=O)O)C3)n2)c1`, the “Growth Rate” value in the data set with HEK-293T (setting [1]) worked out at 0.29; with HEK-293T (setting [2]), 0.07; in the data set with HEK-293T (setting [4]), 0.66; with HEK-293T (setting [8]) it was 0.25; in the data set with HEK-293T (setting [5]) it was 0.11; in the data set with HEK-293T (setting [6]) it was 0.14. Also, the “Growth Rate” value in the data set with HEK-293T (setting [3]) is recorded as 0.21; in the data set with HEK-293T (setting [9]) it was 0.13; with HEK-293T (setting [10]), 0.25; in the data set on HEK-293T (setting [7]), 0.33; with Fibroblast (setting [1]) it was -0.81; with Fibroblast (setting [2]), 0.06. For the same compound, the “Growth Rate” value with U2OS (setting [2]) is listed as -1; in the data set on U2OS (setting [9]), 0.84; in the data set on U2OS (setting [7]) it was 0.73.

Turning to `COC(=O)Nc1nc2ccc(C(=O)c3cccs3)cc2[nH]1` [NOCODAZOLE], the “Growth Rate” value in the data set on HEK-293T (setting [4]) is given as -0.46; in the data set on HEK-293T (setting [8]) it was -0.49; with HEK-293T (setting [5]), -0.24; in the data set on HEK-293T (setting [6]) it was -0.32; with HEK-293T (setting [3]), -0.22; in the data set with HEK-293T (setting [9]), -0.34. Further, the “Growth Rate” value in the data set with HEK-293T (setting [10]) is -0.22; in the data set with HEK-293T (setting [7]) it was -0.26; in the data set on Fibroblast (setting [4]), -0.86; in the data set on Fibroblast (setting [8]), -0.39; in the data set on Fibroblast (setting [5]), -0.6; with Fibroblast (setting [6]) it was -0.2. Moreover, the “Growth Rate” value is -0.54 with Fibroblast (setting [3]); -0.04 in the data set on Fibroblast (setting [9]); -0.33 in the data set on Fibroblast (setting [10]); 0.08 in the data set on Fibroblast (setting [7]); 0.3 in the data set with U2OS (setting [4]); 0.24 with U2OS (setting [8]). The “Growth Rate” value in the data set with U2OS (setting [5]) is recorded as 0.1; with U2OS (setting [6]), -0.16; in the data set with U2OS (setting [3]) it was 0.03; in the data set with U2OS (setting [9]), -0.36; with U2OS (setting [10]), -0.06; in the data set with U2OS (setting [7]) it was -0.35.
